Results from PubChem BioAssay (NCI).
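Dose response: 5 concentrations. Exposure: 48 h. Format: 96-well plates. Endpoint: linear interpolation; highest concentration if not reached. Abbreviation: GI50, concentration required for 50% inhibition of growth. TGI is the concentration that stops growth completely.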

How the values were obtained:
Assay in all cases: DTP human tumour cell line panel, 48 h
HCT-116 colon = tested on: HCT-116 colon
MALME-3M melanoma = tested on: MALME-3M melanoma
IGROV1 ovarian = tested on: IGROV1 ovarian
NCI-H23 lung = tested on: NCI-H23 lung
SK-MEL-5 melanoma = tested on: SK-MEL-5 melanoma
HOP-62 NSCLC = tested on: HOP-62 NSCLC
OVCAR-4 ovarian = tested on: OVCAR-4 ovarian
HCC-2998 colon = tested on: HCC-2998 colon
HL-60(TB) leukemia = tested on: HL-60(TB) leukemia
MCF7 breast = tested on: MCF7 breast

SMILES	TGI (HCT-116 colon)	TGI (MALME-3M melanoma)	TGI (IGROV1 ovarian)	TGI (NCI-H23 lung)	TGI (SK-MEL-5 melanoma)	TGI (HOP-62 NSCLC)	TGI (OVCAR-4 ovarian)	TGI (HCC-2998 colon)	TGI (HL-60(TB) leukemia)	GI50 (HCT-116 colon)	GI50 (MALME-3M melanoma)	GI50 (IGROV1 ovarian)	GI50 (NCI-H23 lung)	GI50 (SK-MEL-5 melanoma)	GI50 (MCF7 breast)	TGI (MCF7 breast)	GI50 (OVCAR-4 ovarian)	GI50 (HCC-2998 colon)	GI50 (HL-60(TB) leukemia)	GI50 (HOP-62 NSCLC)
O=C1CCCCCCCCCCC(=O)C2CCOCCOCCOCCC1Cc1cccc(n1)C2	> 100 µM	> 100 µM	> 100 µM	> 100 µM	> 100 µM	> 100 µM	> 100 µM	> 100 µM	–	–	–	–	–	–	–	–	–	–	–	–
Cc1cc(O)c(C(=O)CC2(O)C(=O)Nc3c(Cl)cc(Cl)cc32)c(=O)o1 (stereo not drawn)	> 100 µM	> 100 µM	> 100 µM	> 100 µM	> 100 µM	> 100 µM	> 100 µM	> 100 µM	> 100 µM	–	–	–	–	–	–	–	–	–	–	–
COc1ccc2nc(-c3ccccc3)cc(Nc3ccc(C(C)=O)cc3)c2c1	4.62 µM	18.7 µM	> 100 µM	11.9 µM	3.86 µM	–	> 100 µM	5.27 µM	–	1.54 µM	5.28 µM	15.8 µM	3.51 µM	1.6 µM	2.47 µM	13.9 µM	12.1 µM	2.45 µM	–	–
c1nc2cscc2c2cscc12	> 100 µM	> 100 µM	> 100 µM	> 100 µM	–	> 100 µM	> 100 µM	> 100 µM	> 100 µM	–	–	–	–	–	–	–	–	–	–	–
c1cc2c(cc1C(N1CCNCC1)N1CCNCC1)OCO2	> 100 µM	> 100 µM	> 100 µM	> 100 µM	> 100 µM	> 100 µM	> 100 µM	–	–	–	–	–	–	–	–	> 100 µM	–	–	–	–
Clc1ccc(-n2nnc(C3=NCCCN3)c2-c2ccccc2)cc1	> 100 µM	> 100 µM	> 100 µM	> 100 µM	> 100 µM	> 100 µM	> 100 µM	> 100 µM	> 100 µM	–	–	–	–	–	–	–	–	–	–	–
COC(=O)/C=C(C)/C=C/c1cc(C(C)=O)c(C)o1	> 100 µM	> 100 µM	> 100 µM	> 100 µM	–	> 100 µM	> 100 µM	> 100 µM	> 100 µM	–	–	–	–	–	–	–	–	–	–	–
N/N=C(\CC1OC(=O)c2ccccc21)c1ccco1 (stereo not drawn)	> 100 µM	> 100 µM	> 100 µM	> 100 µM	> 100 µM	–	> 100 µM	> 100 µM	> 100 µM	–	–	–	–	–	–	–	–	–	–	–
CC(=O)[CH-]C(=O)c1ccccc1.CC(=O)[CH-]C(=O)c1ccccc1.CC(=O)[CH-]C(=O)c1ccccc1.[Tl+3]	> 100 µM	49.2 µM	> 68.6 µM	> 100 µM	> 66.8 µM	99.9 µM	> 100 µM	> 100 µM	16.9 µM	28.2 µM	20.2 µM	24.5 µM	45.4 µM	24.4 µM	–	–	26.1 µM	37.5 µM	4.83 µM	33.5 µM
CN(C)CCCN=C(N)N	> 100 µM	> 100 µM	> 100 µM	> 100 µM	> 100 µM	> 100 µM	> 100 µM	–	> 100 µM	–	–	–	–	–	–	> 100 µM	–	–	–	–
C=C1C(=O)O[C@@H]2C1C[C@@H](O)/C(C)=C/C/C=C(\C)CCC[C@H](C)[C@H]2OC(C)=O (stereo partly drawn)	27 µM	–	32.7 µM	86.2 µM	35.5 µM	> 100 µM	> 100 µM	> 100 µM	–	14.1 µM	–	8.84 µM	27.1 µM	17.7 µM	20 µM	46.2 µM	42.8 µM	31.7 µM	–	45.4 µM
Cn1nc(-c2ccccc2)c(N=[N+]=[N-])cc1=O	> 100 µM	> 100 µM	> 100 µM	> 100 µM	> 100 µM	> 100 µM	> 100 µM	> 100 µM	> 100 µM	–	–	–	–	–	–	–	–	–	–	–
S=c1[nH]c(=S)c2sc(=S)n(-c3ccccc3)c2[nH]1	> 100 µM	> 100 µM	> 100 µM	> 100 µM	> 100 µM	> 100 µM	> 100 µM	> 100 µM	> 100 µM	–	–	–	–	–	–	–	–	–	–	–
O=[N+]([O-])c1ccc(Sc2c3ccccc3nc3ccccc23)cc1	> 100 µM	> 100 µM	> 100 µM	> 100 µM	> 100 µM	> 100 µM	> 100 µM	> 100 µM	> 100 µM	–	–	–	–	–	–	–	–	–	–	–
CC1(C)COCN1COC1CCCCC1	> 100 µM	> 100 µM	> 100 µM	> 100 µM	> 100 µM	> 100 µM	> 100 µM	> 100 µM	–	–	–	–	–	–	–	> 100 µM	–	–	–	–
CC(=O)OCSc1ncnc2c1ncn2CN1CCOCC1	> 100 µM	> 100 µM	> 100 µM	53.2 µM	> 100 µM	> 100 µM	> 100 µM	> 100 µM	> 100 µM	–	–	–	–	–	–	–	–	–	–	–
CCOC(=O)Cc1csc(/N=C2\NC(=O)/C(=C3\C(=O)N(C)c4ccccc43)S2)n1	60.1 µM	95.2 µM	69.2 µM	> 100 µM	> 100 µM	87.9 µM	> 100 µM	> 100 µM	–	28.1 µM	21.8 µM	20.6 µM	48 µM	38 µM	46.8 µM	> 100 µM	35.2 µM	46.1 µM	–	30.1 µM
CC(C)=CC(=O)Oc1ccc([N+](=O)[O-])cc1	> 100 µM	> 100 µM	> 100 µM	> 100 µM	> 100 µM	> 100 µM	> 100 µM	> 100 µM	59.5 µM	–	–	–	–	–	–	–	–	–	–	–
N#CCc1ccc(C(C#N)/C(CCCC(=O)Nc2cccc([N+](=O)[O-])c2)=N\NC(=O)NN)cc1 (stereo not drawn)	> 100 µM	> 100 µM	> 100 µM	> 100 µM	> 100 µM	> 100 µM	> 100 µM	> 100 µM	> 100 µM	–	–	–	–	–	–	–	–	–	–	–
